# In patent publication US9345677B2, “Compositions, methods and kits relating to HER-2 cleavage” (Incyte Corporation, priority 2003, dated 2016):
# How the values were obtained:
# BT474 cells = test: Cell proliferation assay (cell counting, BrdU incorporation); assay type: cell-based, human; settings: Her-2 overexpressing BT474 cells
# Method: Proliferation assays were routinely performed with two protocols: cell counting and BrdU incorporation assay. For cell counting, cells (1×10^5) were seeded in each well of 12 well plates and cultured overnight. Then, cells were treated for 6 days with drugs and compounds as indicated in individual experiments. Culture media were replaced with fresh media containing the same concentrations of drugs and compounds after the first 3 days of treatment. Viable cells were counted with hemacytometers immediately after trypan blue staining.
# The BrdU incorporation assay was performed using a colorimetric Cell Proliferation ELISA kit per manufacturer's instruction (#1647229, Roche Molecular Biochemicals), measuring DNA synthesis in proliferating cells. Briefly, cells (5−10×10^3) were seeded in each well of 96 well plates and cultured overnight. […] Finally, 100 μl/well of substrate solution was added and the results were obtained using a microplate reader (Spectra Max PLUS, Molecular Devices) during color development. Multiple readings at various time points were obtained and results in the linear range of the assay were obtained. […]
# After varying periods of cell culture (2-6 days), the cell cultures were harvested and cell growth was assessed by cell count and BRdU incorporation using standard protocols.
# ADAM10 = target: T1, ADAM10 (Homo sapiens, UniProt O14672); test: ADAM10 fluorogenic peptide biochemical assay
# T1 construct: purchased R&D Systems 936-AD
# T1 sequence (O14672 214-748): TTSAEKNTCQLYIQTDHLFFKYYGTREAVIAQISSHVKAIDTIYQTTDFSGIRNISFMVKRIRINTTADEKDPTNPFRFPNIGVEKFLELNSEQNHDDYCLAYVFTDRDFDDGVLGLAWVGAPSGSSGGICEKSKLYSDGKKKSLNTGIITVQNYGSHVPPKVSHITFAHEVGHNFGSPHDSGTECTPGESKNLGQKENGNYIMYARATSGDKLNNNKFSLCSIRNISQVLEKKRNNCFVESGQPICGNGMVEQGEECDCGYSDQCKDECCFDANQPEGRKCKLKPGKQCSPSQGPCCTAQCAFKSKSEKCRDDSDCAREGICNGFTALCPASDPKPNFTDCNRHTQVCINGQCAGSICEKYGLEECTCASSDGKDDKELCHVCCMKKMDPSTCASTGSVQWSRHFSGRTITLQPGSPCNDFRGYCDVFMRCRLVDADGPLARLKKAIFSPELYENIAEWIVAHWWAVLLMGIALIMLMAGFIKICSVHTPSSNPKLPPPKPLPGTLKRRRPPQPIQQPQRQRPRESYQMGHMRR
# Method: 5 mM Compound stock was prepared in DMSO. Compound plate was prepared by 2-fold dilution for 11-point curve, with highest concentration of 500 μM. 1 μL of compound in DMSO was transferred from compound plate to the assay plate. Enzyme solution was prepared in assay buffer with a concentration of 100 ng/50 μL. Substrate ((7-methoxycoumarin-4-yl)-acetyl-Pro-Leu-Ala-Gln-Ala-Val-(3-[2,4-dinitrophenyl]-L-2,3-diaminopropionyl)-Arg-Ser-Ser-Ser-Arg-NH2 (SEQ ID NO:48)) solution was prepared in assay buffer with a concentration of 20 μM. 50 μL of enzyme solution was added to the assay plate. The assay plate was incubated for 5 minutes. 50 μL of substrate solution was then added to the assay plate. The plate was protected from light and incubated at 37° C. for 4 hours. The reaction was stopped by adding 10 μL of 500 mM EDTA solution. The plate was read on a plate reader with excitation of 320 nm and emission of 405 nm.
# Source of enzymes for biochemical assays: Except for ADAM17 and MT1-MMP, all recombinant human MMPs and ADAMs were obtained from R&D Systems (Minneapolis, Minn.). […]
# In general, 5 mM compound stock was prepared in DMSO. […] The plate was read on a plate reader with excitation of 320 nm and emission of 405 nm. Percentage of inhibition was calculated for each concentration and IC50 value was generated from curve fitting. […]
# Her-2 sheddase = test: Her-2 ECD ELISA of BT474 culture supernatants (Her-2 sheddase inhibition); assay type: cell-based, human
# Method: BT474 cells were seeded in 100 μL of RPMI medium containing 10% FCS+10 μg/ml insulin in 96 well plates at 2×10^4 cells/well. The cells were incubated overnight at 37° C. The following morning, the media was removed and 100 μL of fresh media with or without compound was added back. The cells were incubated for about 72 hours at 37° C. After about 72 hours, the supernatants were removed. The samples were diluted 1:10 and analyzed using a commercially available Her-2 ELISA kit per manufacturer's instructions (Oncogene Research, catalog #QIA 10).
# These inhibitors were added, at varying concentrations, to cultures of BT474 cells, a Her-2 overexpressing breast cancer cell line known to enzymatically process cell surface Her-2 (p185) and release the extracellular domain (ECD) into the culture supernatant, i.e., shedding of ECD. After 72 hours, cell culture supernatants were harvested and assayed for Her-2 ECD content using an ELISA assay.
compound,measurement,setting,value
"Cc1cc([N+](=O)[O-])ccc1N1CCN(C(=O)[C@@H]2[C@@H](C(=O)NO)CC3(CC3)CN2C)CC1 [Compound 5, (6S,7S)-N-hydroxy-5-methyl-6-{[4-(2-methyl-4-nitrophenyl)piperazin-1-yl]-carbonyl}-5-azaspiro[2.5]octane-7-carboxamide]",effect on antiproliferative activity of a suboptimal dose of Herceptin,BT474 cells,synergistically enhances
same,IC50,ADAM10,98 nM
same,IC50,Her-2 sheddase,198 to 250 nM
